# Source: US20110275695A1, “CRYSTALLINE FORMS OF ZOTEPINE HYDROCHLORIDE” (BIONEVIA PHARMACEUTICALS, INC., priority 2008, published 2011)
# Entries after “also recorded” stand apart in the source; their conditions may differ. Counter-ions that a name gives are not always drawn. Like-named read-outs stand apart in the source and are kept apart here.
# Assays:
# [1] = Intrinsic dissolution in water at 25° C. (Woods apparatus pellets, UV at 302 nm); assay type: physicochemical; conditions: for intrinsic dissolution rate: 50 RPM, 900 mL, mean of three pellets, equivalent hydrochloride salt concentration, not normalized for surface area
# Description: Intrinsic Dissolution: Pellets of approximately 200 mg were pressed at 3000 lbs. for 1 minute in a standard Woods apparatus, with a surface area of 0.5 cm^2. Three pellets were tested for each material, testing one material at a time. The samples were rotated in a VanKel dissolution apparatus, with automated sampling, at 50 RPM in 900 mL of water at 25° C. Aliquots were taken every two minutes and not filtered prior to analysis. Concentrations were determined through UV absorbance at approximately 302 nm, to avoid potential interference from benzoic acid. Equivalent hydrochloride salt concentrations were calculated from the Beer's Law plot generated from zotepine hydrochloride salt aqueous standards.
# To determine the rate of dissolution of each material, a plot was generated of the absorbance over time for each vessel. From this plot, a linear region was chosen from the initial dissolution period of each material: starting at the first time point when the measured absorbance exceeded the minimum measured absorbance value in the Beer's Law relationship generated from zotepine hydrochloride salt aqueous standards. The end of the linear region was chosen as either 30 minutes after the first time point, or at the maximum recorded absorbance value that falls within the Beer's Law Relationship. Equivalent hydrochloride salt concentrations were plotted versus time for the regions. A straight-line was fit to the data for each vessel. The slope of these lines provides the dissolution rate for each of the materials, expressed as [μg/mL]/min. The mean of the three rates is the reported rate for each material, expressed as equivalent hydrochloride salt concentration, for direct comparison of the materials. The rates were not normalized for the surface area of the pellet.
# [2] = Approximate aqueous solubility by portion-wise addition of solid to water, visual inspection
# Description: An attempt was made to measure the aqueous solubility of zotepine hydrochloride. To a 1-dram vial was charged 99 mg of zotepine hydrochloride, and 1 mL of HPLC-grade water (obtained from Mallinckrodt) was added.
# A 0.5-mL aliquot of the resulting zotepine hydrochloride aqueous solution was then charged to a second 2-dram vial, and 50 mg of zotepine hydrochloride (50 mg) was added. […] At this point, the procedure was discontinued.
# [3] = Equilibrium solubility in water, ambient-temperature slurry, UV measurement; assay type: physicochemical; conditions: for aqueous solubility (in words) / solid recovered from solubility experiment (XRPD analysis): water; for aqueous solubility (in words) / equilibrium solubility in water / solid recovered from solubility experiment (XRPD analysis): ambient temperature; for equilibrium solubility in water: UV analysis of supernatant
# Description: Equilibrium Solubility—UV Measurement: Equilibrium solubility was determined in water using ambient-temperature slurry experiments. Samples were prepared with excess solids and agitated on a wheel for at least 3 days. Remaining solids were separated from the mixture by centrifugation. The clear supernatant was pipeted to a separate container and the concentration determined through ultraviolet (UV) spectrophotometry, diluting the sample with additional water if necessary. […] Equivalent zotepine hydrochloride salt concentrations were calculated from the Beer's Law plot generated front zotepine hydrochloride salt aqueous standards and adjusted to account for the stoichiometry of the solids utilized. Retained solids were analyzed by X-ray powder diffraction, if sufficient solids were present. Concentrations of aqueous solutions of BNV-218 were determined through ultraviolet absorbance. Ultraviolet spectrophotometry: Solutions were analyzed using a Cary 50 dual-beam spectrophotometer. They were analyzed at ambient temperature in a 1.000-cm quartz cuvette. Scans at 600 nm/min in the range of 800-200 nm were performed to determine an optimal wavelength for concentration measurement. The cuvette was washed with methanol, followed by water, and the detector was then zeroed prior to analysis of each sample. Wavelength calibration was performed using holmium oxide. The photometric accuracy was verified by measuring the intensity of the light at the detector when filters of known optical density were placed in the path of the beam.
# [4] = pharmaceutical formulations containing the zotepine free base; cited from earlier work
# [5] = cited from earlier work
# [6] = listed as crystalline zotepine hydrochloride, hydrochloride
compound,measurement,setting,value
CN(C)CCOC1=Cc2ccccc2Sc2ccc(Cl)cc21.CN(C)CCOC1=Cc2ccccc2Sc2ccc(Cl)cc21.Cl.Cl.O=C(O)c1ccccc1 [2:1 zotepine hydrochloride benzoic acid cocrystal],dissolution rate in water (in words),[1],intermediate between those of the 1:1 zotepine hydrochloride benzoic acid cocrystal and zotepine hydrochloride
same,solid recovered after dissolution experiment (XRPD analysis),[1],converts to the 2:1 zotepine hydrochloride benzoic acid cocrystal
same,intrinsic dissolution rate,[1],2.3 [μg/mL]/min
same,approximate solubility / calculated aqueous concentration from amount of solid added,"[2]; water, portion-wise addition of solid, ambient temperature",≥ 56 mg/mL
CN(C)CCOC1=Cc2ccccc2Sc2ccc(Cl)cc21 [zotepine hydrochloride],intrinsic dissolution rate,"[1]; listed as zotepine hydrochloride salt, hydrochloride",3.9 [μg/mL]/min
same,dissolution rate in water (in words),[1]; [6],significantly higher
same,"surface activity (suds on addition of solid to water, visual inspection)",[2],high surface activity
same,aqueous solubility (in words),[3]; [6],significantly higher
CN(C)CCOC1=Cc2ccccc2Sc2ccc(Cl)cc21.Cl.O=C(O)c1ccccc1 [1:1 zotepine hydrochloride benzoic acid cocrystal],dissolution rate in water (in words),[1],intermediate between those of zotepine free base and zotepine hydrochloride
same,solid recovered after dissolution experiment (XRPD analysis),[1],the 1:1 zotepine hydrochloride benzoic acid cocrystal
same,intrinsic dissolution rate,[1],0.3 [μg/mL]/min
same,"surface activity (suds on addition of solid to water, visual inspection)",[2]; water,exhibited surface activity
same,equilibrium solubility in water,[3],~44 mg/mL
same,equilibrium solubility in water,[3]; listed as 1:1 benzoic acid cocrystal,approximately 44 mg/mL
same,solid recovered from solubility experiment (XRPD analysis),[3],1:1 benzoic acid cocrystal
"CN(C)CCOC1=Cc2ccccc2Sc2ccc(Cl)cc21 [zotepine free base, 2-[(8-chlorodibenzo[b,f]thiepin-10-yl)oxy]-N,N-dimethylethylamine, reference compound]",dissolution rate in water (in words),[1],too low to be calculated; also recorded: negligible; also recorded: very close to zero
same,maximum UV absorbance in intrinsic dissolution experiment,"[1]; 302 nm, experiment ended at 2,880 minutes",0.02
same,approximate solubility / calculated aqueous concentration from amount of solid added,[2],less than 4 mg/mL
same,bioavailability,[4],7-13%
same,solubility in water as reported,[5],relatively insoluble in water
same,largest recorded UV absorbance at end of equilibrium solubility experiment,[3],0.02
same,aqueous solubility (in words),[3],negligible
same,solid recovered from solubility experiment (XRPD analysis),[3],zotepine free base
